Measurements published in patent publication US20230143612A1 (Arbutus Biopharma Corporation, priority 2020, published 2023).

molecular target: PD-L1 His protein / PD-1 Fc protein (Homo sapiens, UniProt Q9NZQ7); assay: HTRF Assay (PD-1/PD-L1 interaction); format: binding; conditions: PD-L1 His 6 nM, PD-1 Fc 6 nM
In short: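 Compounds tested from 20 μM down to 0.001 μM (3-fold) against 6 nM PD-L1 His and 6 nM PD-1 Fc, 15 min room temperature incubation. Detection after 1 h at room temperature with Tb cryptate anti-6HIS and XL665 anti-human IgG reagents (mixture at 0.35 nM and 6.7 nM), HTRF signal.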

PD-L1 His protein / PD-1 Fc protein, sequence (Q9NZQ7 19-238 limits assumed): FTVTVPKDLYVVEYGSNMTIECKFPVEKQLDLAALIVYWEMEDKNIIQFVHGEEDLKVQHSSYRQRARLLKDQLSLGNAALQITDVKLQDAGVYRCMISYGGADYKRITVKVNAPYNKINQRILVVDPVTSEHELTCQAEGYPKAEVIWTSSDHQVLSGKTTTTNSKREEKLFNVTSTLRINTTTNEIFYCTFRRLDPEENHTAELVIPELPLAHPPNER

SMILES	IC50 [nM]
COc1nc(-c2cccc(-c3cccc(-c4cc5c(cn4)CN(CCNC[C@@H]4CCC(=O)N4)C5=O)c3Cl)c2Cl)ccc1CNC[C@@H]1CCC(=O)N1 [Example 454, 6-(2,2′-dichloro-3′-(6-methoxy-5-(((((S)-5-oxopyrrolidin-2-yl)methyl)amino)methyl)pyridin-2-yl)-[1,1′-biphenyl]-3-yl)-2-(2-((((S)-5-oxopyrrolidin-2-yl)methyl)amino)ethyl)-2,3-dihydro-1H-pyrrolo[3,4-c]pyridin-1-one]	0.1
COc1nc(-c2cccc(-c3cccc(N4Cc5cc(CNC[C@@H]6CCC(=O)N6)ccc5C4=O)c3Cl)c2Cl)ccc1CNC[C@@H]1CCC(=O)N1 [Example 387, 2-(2,2′-Dichloro-3′-(6-methoxy-5-(((((S)-5-oxopyrrolidin-2-yl)methyl)amino)methyl)pyridin-2-yl)-[1,1′-biphenyl]-3-yl)-5-(((((S)-5-oxopyrrolidin-2-yl)methyl)amino)methyl)isoindolin-1-one]	0.1
COc1nc(-c2cccc(-c3cccc(-c4ccc5nc(CNC[C@H](C)O)cn5n4)c3Cl)c2Cl)ccc1CNC[C@@H]1CCC(=O)N1 [Example 354, (5S)-5-[[[6-[2-Chloro-3-[2-chloro-3-[2-[[[(2S)-2-hydroxypropyl]amino]methyl]imidazo[1,2-b]pyridazin-6-yl]phenyl]phenyl]-2-methoxy-3-pyridyl]methylamino]methyl]pyrrolidin-2-one]	0.8
COc1nc(-c2cccc(-c3cccc(-c4ccc(CN5CCCC[C@H]5C(=O)O)c(OC)n4)c3Cl)c2Cl)ccc1CNC[C@@H]1CCC(=O)N1 [Example 494, (S)-1-((6-(2,2′-Dichloro-3′-(6-methoxy-5-(((((S)-5-oxopyrrolidin-2-yl)methyl)amino)-methyl)pyridin-2-yl)-[1,1′-biphenyl]-3-yl)-2-methoxypyridin-3-yl)methyl)piperidine-2-carboxylic acid]	0.1
COc1nc(-c2cccc(-c3cccc(-c4ccc5c(OC)c(CNC[C@H](C)O)cc(Cl)c5n4)c3Cl)c2Cl)ccc1CNC[C@@H]1CCC(=O)N1 [Example 367, (S)-5-((((6-(2,2′-Dichloro-3′-(8-chloro-6-((((S)-2-hydroxypropyl)amino)methyl)-5-methoxyquinolin-2-yl)-[1,1′-biphenyl]-3-yl)-2-methoxypyridin-3-yl)methyl)amino)methyl)pyrrolidin-2-one]	21
COC(=O)C1CN(Cc2cc(=O)n3ccc(-c4cccc(-c5cccc(-c6ccc(CNC[C@@H]7CCC(=O)N7)c(OC)n6)c5Cl)c4Cl)cc3n2)C1 [Example 343, (S)-Methyl 1-((8-(2,2′-dichloro-3′-(6-methoxy-5-((((5-oxopyrrolidin-2-yl)methyl)amino)methyl)pyridin-2-yl)-[1,1′-biphenyl]-3-yl)-4-oxo-4H-pyrido[1,2-a]pyrimidin-2-yl)methyl) azetidine-3-carboxylate]	0.1
COc1nc(-c2cccc(-c3cccc(-c4ccn5c(=O)c(CNC[C@H](C)O)c(C)nc5c4)c3Cl)c2Cl)ccc1CNC[C@H](C)O [Example 181, 8-(2,2′-Dichloro-3′-(5-((((S)-2-hydroxypropyl)amino)methyl)-6-methoxypyridin-2-yl)-[1,1′-biphenyl]-3-yl)-3-((((S)-2-hydroxypropyl)amino)methyl)-2-methyl-4H-pyrido[1,2-a]pyrimidin-4-one]	3.8
COc1nc(-c2cccc(-c3cccc(-c4ccn5c(=O)c(CNC[C@@H](C)O)cnc5c4)c3Cl)c2Cl)ccc1CNC[C@@H]1CCC(=O)N1 [Example 132, 8-(2,2′-Dichloro-3′-(6-methoxy-5-(((((S)-5-oxopyrrolidin-2-yl)methyl)amino)methyl)pyridin-2-yl)-[1,1′-biphenyl]-3-yl)-3-((((R)-2-hydroxypropyl)amino)methyl)-4H-pyrido[1,2-a]pyrimidin-4-one]	1.7
CNC(=O)C(C)(C)NCc1cc(=O)n2ccc(-c3cccc(-c4cccc(-c5ccc(CNC[C@@H]6CCC(=O)N6)c(OC)n5)c4Cl)c3Cl)cc2n1 [Example 341, (S)-2-(((8-(2,2′-Dichloro-3′-(6-methoxy-5-((((5-oxopyrrolidin-2-yl)methyl)amino)methyl)pyridin-2-yl)-[1,1′-biphenyl]-3-yl)-4-oxo-4H-pyrido[1,2-a]pyrimidin-2-yl)methyl)amino)-N,2-dimethylpropanamide]	0.1
COc1nc(-c2cccc(-c3cccc(-c4ccn5c(=O)c(C6=NCC(O)CN6)c(C)nc5c4)c3Cl)c2Cl)ccc1CNC[C@@H]1CCC(=O)N1 (stereo partly drawn) [Example 290, 8-(2,2′-dichloro-3′-(6-methoxy-5-(((((S)-5-oxopyrrolidin-2-yl)methyl)amino)methyl)pyridin-2-yl)-[1,1′-biphenyl]-3-yl)-3-(5-hydroxy-1,4,5,6-tetrahydropyrimidin-2-yl)-2-methyl-4H-pyrido[1,2-a]pyrimidin-4-one]	0.4
COC(=O)C[C@H](O)CNCc1nn2cc(-c3cccc(-c4cccc(-c5ccc(CNC[C@@H]6CCC(=O)N6)c(OC)n5)c4Cl)c3Cl)cc2c(=O)n1C [Example 489, Methyl (3S)-4-[[6-[2-chloro-3-[2-chloro-3-[6-methoxy-5-[[[(2S)-5-oxopyrrolidin-2-yl]methylamino]methyl]-2-pyridyl]phenyl]phenyl]-3-methyl-4-oxo-pyrrolo[2,1-f][1,2,4]triazin-2-yl]methylamino]-3-hydroxy-butanoate]	1500
COc1nc(-c2cccc(-c3cccc(-c4cc5c(=O)n(C)c(CN6CC7(CCC(=O)N7)C6)nn5c4)c3Cl)c2Cl)ccc1CNC[C@@H]1CCC(=O)N1 [Example 448, 6-[2-Chloro-3-[2-chloro-3-[6-methoxy-5-[[[(2S)-5-oxopyrrolidin-2-yl]methylamino]methyl]-2-pyridyl]phenyl]phenyl]-3-methyl-2-[(6-oxo-2,5-diazaspiro[3.4]octan-2-yl)methyl]pyrrolo [2,1-f][1,2,4]triazin-4-one]	6.8
COc1nc(-c2cccc(-c3cccc(-c4ccn5c(=O)c(CN6CC[C@H](C(=O)O)C6)cnc5c4)c3Cl)c2Cl)cnc1CNC[C@@H]1CCC(=O)N1 [Example 116, (S)-1-((8-(2,2′-Dichloro-3′-(6-methoxy-5-(((((S)-5-oxopyrrolidin-2-yl)methyl)amino)methyl)pyrazin-2-yl)-[1,1′-biphenyl]-3-yl)-4-oxo-4H-pyrido[1,2-a]pyrimidin-3-yl)methyl)pyrrolidine-3-carboxylic acid]	0.3
COC(=O)CNCc1cnc2cc(-c3cccc(-c4cccc(-c5ccc(CNC[C@@H]6CCC(=O)N6)c(OC)n5)c4Cl)c3Cl)cc(C)n2c1=O [Example 294, (S)-Methyl 2-(((8-(2,2′-dichloro-3′-(6-methoxy-5-((((5-oxopyrrolidin-2-yl)methyl)amino)methyl)pyridin-2-yl)-[1,1′-biphenyl]-3-yl)-6-methyl-4-oxo-4H-pyrido[1,2-a]pyrimidin-3-yl)methyl)amino)acetate]	0.4
COc1nc(-c2cccc(-c3cccc(-c4ccn5c(=O)c(CNC[C@@H]6CCC(=O)N6)c(C)nc5c4)c3Cl)c2Cl)ccc1CNC[C@@H]1CCC(=O)N1 [Example 164, 8-(2,2′-Dichloro-3′-(6-methoxy-5-(((((S)-5-oxopyrrolidin-2-yl)methyl)amino)methyl)pyridin-2-yl)-[1,1′-biphenyl]-3-yl)-2-methyl-3-(((((S)-5-oxopyrrolidin-2-yl)methyl)amino)methyl)-4H-pyrido[1,2-a]pyrimidin-4-one]	1.3
COc1nc(-c2cccc(-c3cccc(-c4ccn5c(=O)c(CNCC[C@@H]6CCC(=O)N6)cnc5c4)c3Cl)c2Cl)ccc1CNC[C@@H]1CCC(=O)N1 [Example 214, 8-[2-chloro-3-[2-chloro-3-[6-methoxy-5-[[[(2S)-5-oxopyrrolidin-2-yl]methylamino]methyl]-2-pyridyl]phenyl]phenyl]-3-[[2-[(2S)-5-oxopyrrolidin-2-yl]ethylamino]methyl]pyrido[1,2-a]pyrimidin-4-one]	0.5
COc1nc(-c2cccc(-c3cccc(-c4ccn5c(=O)c(CNC[C@H](C)N)cnc5c4)c3Cl)c2Cl)ccc1CNC[C@@H]1CCC(=O)N1 [Example 298, 3-[[[(2S)-2-Aminopropyl]amino]methyl]-8-[2-chloro-3-[2-chloro-3-[6-methoxy-5-[[[(2S)-5-oxopyrrolidin-2-yl]methylamino]methyl]-2-pyridyl]phenyl]phenyl]pyrido[1,2-a]pyrimidin-4-one]	25
COc1cc(-c2cccc(-c3cccc(-c4ccc(CNC[C@@H]5CCC(=O)N5)c(OC)n4)c3Cl)c2Cl)cc2c1CN(CCC1(O)CCC1)CC2 [Example 484, (S)-5-((((6-(2,2′-Dichloro-3′-(2-(2-(1-hydroxycyclobutyl)ethyl)-8-methoxy-1,2,3,4-tetrahydroisoquinolin-6-yl)-[1,1′-biphenyl]-3-yl)-2-methoxypyridin-3-yl)methyl)amino)methyl)pyrrolidin-2-one]	0.3
CNCCCN(C)Cc1ccc(-c2cccc(-c3cccc(-c4ccn5c(=O)c(CN(C)CCNC)cnc5c4)c3Cl)c2Cl)nc1OC [Example 276, 8-(2,2′-dichloro-3′-(6-methoxy-5-((methyl(3-(methylamino)propyl)amino)methyl)pyridin-2-yl)-[1,1′-biphenyl]-3-yl)-3-((methyl(2-(methylamino)ethyl)amino)methyl)-4H-pyrido[1,2-a]pyrimidin-4-one]	90
COC(=O)C1CN(Cc2cnc3cc(-c4cccc(-c5cccc(-c6ccc(CNC[C@@H]7CCC(=O)N7)c(OC)n6)c5Cl)c4Cl)ncc3c2)C1 [Example 304, (S)-Methyl 1-((7-(2,2′-dichloro-3′-(6-methoxy-5-((((5-oxopyrrolidin-2-yl)methyl)amino)methyl)pyridin-2-yl)-[1,1′-biphenyl]-3-yl)-1,6-naphthyridin-3-yl)methyl)azetidine-3-carboxylate]	0.2
